Results from patent US6673902B2, “Cyclin D binding factor, and uses thereof” (St. Jude Children's Research Hospital, priority 1996, dated 2004).

Key:
p19ARF = assay: Induction of endogenous p19ARF protein in retrovirus-infected MEFs; type: cell-based, mouse
Method: Virus production and infection. Human kidney 293T cells were transfected with a helper ecotropic retrovirus plasmid defective in psi-2 packaging sequences, together with pSRα vectors containing murine DMP1, human c-Myc, human E2F-1, or human Ets1 cDNAs [Zindy, et al., Genes Dev. 12:2424-2433 (1998); Inoue and Sherr, J. Biol. Chem. 273:29188-29194 (1998)]. Viruses were harvested every 6 hours 24-72 hours after transfection, filtered and stored at 4° C. until used for infection [Zindy, et al., Genes Dev. 12:2424-2433 (1998)]. In order to construct a retroviral vector containing DMP1 linked to a mutated tamoxifen-responsive element of the estrogen receptor (DMP1-ER™), a 3′ 0.3 kb EcoNI DNA fragment of murine DMP1 cDNA was amplified by PCR using
RNA and protein expression. Quantitative RT-PCRs employed specific primers for murine ARF exon 1β (30 cycles) and for β-actin (20 cycles) used as a control [Zindy et al., Oncogene 15:203-211 (1997)]. […]
Based on the above observations, it was determined as to whether introduction of DMP1 would induce synthesis of the endogenous ARF protein in normal diploid fibroblast strains. […] Although the blot was normalized for protein input, the levels of p19^ARF induced by DMP1 were calculated to be 2-fold higher than those induced by Myc, because fewer cells were productively infected with the DMP1 virus in this experiment (see FIG. 15A).

[1] = test system: promoters lacking BS2 sites or containing Ets-specific M3 sites; assay: Transactivation of reporters lacking BS2 sites or containing M3 sites in 293T cells; type: cell-based, human
Text: An XbaI-EcoRV fragment containing the entire DMP1 coding sequence is subcloned by blunt end ligation into a SpeI-XbaI fragment of the Rc/RSV vector (Invitrogen, La Jolla Calif.) to enable DMP1 expression in mammalian cells. 6×concatamerized BS1, 8×concatamerized, BS2, or 7×concatamerized M3 oligonucleotides (FIG. 5B) are inserted into the XhoI-SmaI sites of pGL2 (Pfornega) 5′ to a minimal simian virus 40 (SV40) early promoter driving firefly luciferase gene expression. The latter “reporter” plasmid (1 μg) together with increasing amounts of pRc/RSV-DMP1 expression plasmid compensated by decreasing quantities of control pRc/RSV DNA (total of both=2.5 μg) were transfected into 293T cells (1.5×10^6 cells per 60 mm diameter culture dish) by calcium phosphate precipitation (7). Two days later, cells were harvested, washed three times with PBS, and lysed in 1 ml of 25 mM glycylglycine (Sigma), pH 7.8, 15 mM MgSO4, 4 mM EDTA, 1 mM DTT, and 1% Triton X-100. After clearing by centrifugation, 50 μl aliquots were assayed diluted to 350 μl using 15 mM potassium phosphate buffer, pH 7.8, containing 15 mM MgSO4, 4 mM EGTA, 2 mM ATP, 1 mM DTT, and 67 uM luciferin (Sigma). Total light emission was measured for duplicate samples during the initial 20 seconds after luciferin injection with an Optocomp I luminometer (MGM Instruments, Hamden Conn.). […]

Substance: DMP1: murine cyclin D-associated myb-like transcription factor, 761 amino acids, SEQ ID NO:1
- levels of p19ARF induced relative to those induced by Myc (p19ARF; corrected for fraction of productively infected cells): 2 fold
- ARF protein synthesis (p19ARF; early passage MEFs, retroviral infection): induced ARF protein synthesis
- transactivation [1]: not observed
